The test system of the experiment is Phosphorylation of STAT6 in human A549 cells. The experiment is described as follows: Phosphorylated STAT6 (pSTAT6) flow cytometry assay in human A549 cells. In kind it is cell-based. From the text: Example 3. Phosphorylated STAT6 (pSTAT6) Flow Cytometry Assay in Human A549 Cells
Phosphorylation of STAT6 in human A549 cells was quantitatively measured using flow cytometry technology.
A general note: In flow cytometry, cells or beads pass a laser one at a time.

[1] abbreviates: read-out: STAT6 IL4 pSTAT6 assay in A549 cells: Average IC50.

Values joined by “and” are separate entries in the source; they are usually repeats but may differ in a detail not shown here. Equal entries are not always repeated. Where two headings read alike, the source gives them in different places.

By IC50 is commonly meant the concentration that inhibits the measured activity by half. For the molecule `COc1cc(F)cnc1N1CCN(C(=O)c2cc3c(-c4ccc(C(=O)N5CCCC5)c(F)c4)cc(C4=CCCN(C(=O)CCn5ccnn5)C4)c(F)c3[nH]2)CC1` [Example I-1144], the IC50 under setting [1] is under 100 nM. In the case of `CCc1ccccc1N1CCN(C(=O)c2cc3c(-c4ccccc4OC)cc(C4=CCCN(C(=O)CCn5ccnn5)C4)c(F)c3[nH]2)CC1` [Example I-969], the IC50 under setting [1] fell in the range of 100 to 1000 nM. Same read-out and setting: then `CCc1ccncc1-c1cc(C2=CCCN(C(=O)CCn3ccnn3)C2)c(F)c2[nH]c(C(=O)N3CCN(c4ncc(F)cc4OC)CC3)cc12` [Example I-476], with under 100 nM. With `COc1cccc(/C=C/c2cc(C3=CCCN(C(=O)CCn4ccnn4)C3)c(F)c3[nH]c(C(=O)N4CCN(c5ncc(F)cc5OC)CC4)cc23)c1` [Example I-1129], the IC50 under setting [1] is under 100 nM. `CCn1ncc2c1CN(C(=O)c1cc(C3=CCCCC3)c3c(c1)cc(C1=CCCN(C(=O)CCn4ccnn4)C1)n3CC1CC1)C2` [Example I-765]: the IC50 under setting [1] is under 100 nM.

Consider `Cc1ccc(-c2cc(C3=CCCN(C(=O)CCn4ccnn4)C3)cc3cc(C(=O)N(C)C)oc23)c(O)c1` [Example I-853], for which, under setting [1], the IC50 was under 100 nM. As to `COc1ccccc1-c1cc(C2=CCCN(C(=O)CCn3ccnn3)C2)c(F)c2[nH]c(C(=O)N3CCN(c4ccn(C)n4)CC3)cc12` [Example I-933], under setting [1], the IC50 was under 100 nM. As for `CNc1cccnc1N1CCN(C(=O)c2cc3c(-c4ccccc4OC)cc(C4=CCCN(C(=O)CCn5ccnn5)C4)c(F)c3[nH]2)CC1` [Example I-439], the IC50 under setting [1] is under 100 nM. For the molecule `COc1ccccc1-c1cc(C2=CCCN(C(=O)CCn3ccnn3)C2)c(F)c2[nH]c(C(=O)NC(C#N)c3ccccc3)cc12` (stereo not shown) [Example I-772], under setting [1], the IC50 is over 100000 nM.

Turning to `COc1ccncc1-c1cc(C2=CCCN(C(=O)CCn3ccnn3)C2)c(F)c2[nH]c(C(=O)N3CCN(c4ccc(Cl)cc4OC)CC3)cc12` [Example I-450], the IC50 under setting [1] is under 100 nM. Consider `CCC1=C(c2cc(C3=CCCN(C(=O)CCn4ccnn4)C3)c(F)c3[nH]c(C(=O)N4CCN(c5ncc(F)cc5OC)CC4)cc23)CCNC1` [Example I-731], for which the IC50 under setting [1] is under 100 nM.

As to `COc1ccccc1-c1cc(C2=CCCN(C(=O)CCn3ccnn3)C2)c(F)c2[nH]c(C(=O)N3CCN(c4c(C)cccc4OC)CC3)cc12` [Example I-913], under setting [1], the IC50 was 100 to 1000 nM. Consider `CNc1ccc(-c2cc(C3=CCCN(C(=O)CCn4ccnn4)C3)cc3[nH]c(C(=O)N(C)C)cc23)c(C)c1` [Example I-1053], for which the IC50 under setting [1] was under 100 nM. For the molecule “Methyl 5-(3-(5-(2-(dimethylcarbamoyl)benzofuran-5-yl)-1,2,3,6-tetrahydropyridine-1-carbonyl)-2-formyl-1,2,3,4-tetrahydroisoquinolin-5-yl)pent-4-ynoate [Example I-802]”, the IC50 under setting [1] was under 100 nM. Turning to `COc1cccc(N2CCN(C(=O)c3cc4c(-c5ccc(N(C)C)cc5OC)cc(C5=CCCN(C(=O)CCn6ccnn6)C5)c(F)c4[nH]3)CC2)n1` [Example I-1109], the IC50 under setting [1] was under 100 nM.

With `COc1ccccc1-c1cc(C2=CCCN(C(=O)CCn3ccnn3)C2)c(F)c2[nH]c(C(=O)N3CCN(c4ccccc4C)CC3)cc12` [Example I-421], the half-inhibitory concentration (IC50) under setting [1] was under 100 nM. Same read-out and setting: then `CCn1nccc1-c1cc(C2=CCCN(C(C)=O)C2)c(F)c2[nH]c(C(=O)N3Cc4cnn(CC)c4C3)cc12` [Example I-1176], with under 100 nM; and `CN(C)C(=O)c1cc2cc(C3=CCCN(C(=O)CCn4ccnn4)C3)cc(-c3ccc4[nH]ccc4c3)c2o1` [Example I-1071], with under 100 nM; and `COc1ccc(C)cc1-c1cc(C2=CCCN(C(=O)C3Cc4ccccc4CN3C=O)C2)cc2cc(C(=O)N(C)C)oc12` (stereo not shown) [Example I-1197], with 100 to 1000 nM. For `COc1cc(F)cnc1N1CCN(C(=O)c2cc3c(-c4cnn(C)c4-c4ccccc4)cc(C4=CCCN(C(=O)CCn5ccnn5)C4)c(F)c3[nH]2)CC1` [Example I-621], the IC50 under setting [1] was under 100 nM.

With `CCc1cc(C)ncc1-c1cc(C2=CCCN(C(=O)C(C)C(=O)O)C2)c(F)c2[nH]c(C(=O)N3CCN(c4ncc(F)cc4OC)CC3)cc12` (stereo not shown) [Example I-808, 3-(3-(4-(4-ethyl-6-methylpyridin-3-yl)-7-fluoro-2-(4-(5-fluoro-3-methoxypyridin-2-yl)piperazine-1-carbonyl)-1H-indol-6-yl)-5,6-dihydropyridin-1(2H)-yl)-2-methyl-3-oxopropanoic acid], under setting [1], the IC50 was 100 to 1000 nM and < 100 nM. Regarding `CCc1ccc(-c2cc(C3=CCCN(C(=O)CCn4ccnn4)C3)c(F)c3[nH]c(C(=O)N4Cc5cnn(CC)c5C4)cc23)c(C)n1` [Example I-761], the IC50 under setting [1] was over 100000 nM. Regarding `CN(C)C(=O)c1cc2c(F)c(C3=CCCN(C(=O)CCn4ccnn4)C3)ccc2o1` [Example I-1052], under setting [1], the IC50 was under 100 nM. As to `COc1cc(F)cnc1N1CCN(C(=O)c2cc3c(-c4ccc(-c5ccncc5)cc4)cc(C4=CCCN(C(=O)CCn5ccnn5)C4)c(F)c3[nH]2)CC1` [Example I-1118], the IC50 under setting [1] was under 100 nM. Same read-out and setting: then `CCc1cc(C)ncc1-c1cc(C2=CCCN(C(=O)CCn3cccn3)C2)c(F)c2[nH]c(C(=O)N3Cc4cnn(CC)c4C3)cc12` [Example I-537], with under 100 nM; and `CC(C(=O)N1CCC=C(c2ccc3cc(C(=O)N(C)C)[nH]c3c2)C1)n1ccccc1=O` (stereo not shown) [Example I-825], with 100 to 1000 nM. Still for that read-out and setting: then `COc1c(F)cccc1-c1cc(C2=CCCN(C(C)=O)C2)c(F)c2[nH]c(C(=O)N(C)C)cc12` [Example I-881], with 100 to 1000 nM; and `COc1cccnc1N1CCN(C(=O)c2cc3c(C4CCCCC4)cc(C4=CCCN(C(=O)CCn5ccnn5)C4)c(F)c3[nH]2)CC1` [Example I-579], with under 100 nM. For the molecule `COc1cccc(N2CCN(C(=O)c3cc4c(-c5cc(F)c(F)cc5OC)cc(C5=CCCN(C(=O)CCn6ccnn6)C5)c(F)c4[nH]3)CC2)n1` [Example I-590], the IC50 under setting [1] was under 100 nM. The same measure, in the same setting: then `COc1ccccc1-c1cc(C2=CCCN(C(=O)CCn3ccnn3)C2)c(F)c2[nH]c(C(=O)N3CCN(c4cc5ccccc5cc4OC)CC3)cc12` [Example I-342], with under 100 nM; and `CCn1ncc2c1CN(C(=O)c1cc3c(-c4cnc(C5CC5)cc4C)cc(C4=CCCN(C(=O)CCn5ccnn5)C4)c(F)c3[nH]1)C2` [Example I-766], with over 100000 nM; and `COc1cccnc1N1CCN(C(=O)c2cc3c(N4CCN(C)CC4)cc(C4=CCCN(C(=O)CCn5ccnn5)C4)c(F)c3[nH]2)CC1` [Example I-557], with under 100 nM. As for `COc1cc(F)cnc1N1CCN(C(=O)c2cc3c(-c4ccc(C(C)N5CCOCC5)cc4)cc(C4=CCCN(C(=O)CCn5ccnn5)C4)c(F)c3[nH]2)CC1` (stereo not shown) [Example I-1121], the IC50 under setting [1] was under 100 nM. For `O=C(CCn1ccnn1)N1CCC=C(c2cc(-c3ccccc3OC3CC3)c3cc(C(=O)N4CCN(c5ncccc5OC5CC5)CC4)[nH]c3c2F)C1` [Example I-477], the IC50 under setting [1] is under 100 nM. As to `COc1ccccc1-c1cc(C2=CCCN(C(=O)CCn3ccnn3)C2)c(F)c2[nH]c(C(=O)N3CCN(c4cc5cc[nH]c5nc4C#N)CC3)cc12` [Example I-401], the half-maximal inhibitory concentration (IC50) under setting [1] is over 100000 nM. For `COc1ccccc1-c1cc(C2=CCCN(C(=O)CCn3ccnn3)C2)c(F)c2[nH]c(C(=O)N3CCN(Cc4ccc(Br)cc4)CC3)cc12` [Example I-852], the IC50 under setting [1] was in the range of 100 to 1000 nM. As to `COc1cc(F)cnc1N1CCN(C(=O)c2cc3c(-c4ccccc4C4CC4)cc(C4=CCCN(C(=O)CCn5ccnn5)C4)c(F)c3[nH]2)CC1` [Example I-645], under setting [1], the IC50 is under 100 nM.

As to `COC(=O)c1ccc(OC)c(N2CCN(C(=O)c3cc4c(-c5ccccc5OC)cc(C5=CCCN(C(=O)CCn6ccnn6)C5)c(F)c4[nH]3)CC2)n1` [Example I-360], the IC50 under setting [1] was under 100 nM. Consider `CCC1CN(C)CC1c1cc(C2=CCCN(C(=O)CCn3ccnn3)C2)c(F)c2[nH]c(C(=O)N3CCN(c4ncc(F)cc4OC)CC3)cc12` (stereo not shown) [Example I-1209, 1-[5-[4-(4-ethyl-1-methyl-pyrrolidin-3-yl)-7-fluoro-2-[4-(5-fluoro-3-methoxy-2-pyridyl)piperazine-1-carbonyl]-1H-indol-6-yl]-3,6-dihydro-2H-pyridin-1-yl]-3-(triazol-1-yl)propan-1-one], for which, under “listed as I-394, read-out: STAT6 IL4 pSTAT6 assay in A549 cells: Average IC50”, the IC50 is over 100000 nM. Regarding `COc1cc(F)cnc1N1CCN(C(=O)c2cc3c(C4CCCCN4C)cc(C4=CCCN(C(=O)CCn5ccnn5)C4)c(F)c3[nH]2)CC1` (stereo not shown) [Example I-780], the IC50 under setting [1] is under 100 nM. For `COc1ccccc1-c1cc(C2=CCCN(C(=O)CCn3ccnn3)C2)c(F)c2[nH]c(C(=O)N3CCN(c4c(OC)cccc4OC)CC3)cc12` [Example I-350], under setting [1], the IC50 was under 100 nM. In the case of `COc1ccccc1-c1cc(C2=CCCN(C(=O)CCn3ccnn3)C2)c(F)c2[nH]c(C(=O)N3CCN(c4nccc(C)c4OC)CC3)cc12` [Example I-415], the IC50 under setting [1] is under 100 nM. For `CCc1ccc(-c2cc(C(=O)N3Cc4cnn(CC)c4C3)cc3cc(C4=CCCN(C(=O)CC(=O)O)C4)n(CC(C)C)c23)c(C)n1` [Example I-801], the IC50 under setting [1] was over 100000 nM. Take `COC(=O)CCC#Cc1cc(C2=CCCN(C(=O)C3Cc4ccccc4CN3C=O)C2)cc2cc(C(=O)N(C)C)oc12` (stereo not shown) [Example I-823]: the 50% inhibitory concentration (IC50) under setting [1] was under 100 nM.

`COc1ccccc1-c1cc(C2=CCCN(C(=O)CCn3ccnn3)C2)c(F)c2[nH]c(C(=O)N3CCN(c4ccc(C#N)cc4F)CC3)cc12` [Example I-1009]: the IC50 under setting [1] is under 100 nM. For `COc1ccncc1-c1cc(C2=CCCN(C(=O)CCn3ccnn3)C2)c(F)c2[nH]c(C(=O)N3CCN(c4nccnc4OC)CC3)cc12` [Example I-441], under setting [1], the IC50 was under 100 nM. On the same count and under the same terms, the value for `CCc1ccncc1-c1cc(C2=CCCN(C(=O)CCn3ccnn3)C2)c(F)c2[nH]c(C(=O)N3CCN(c4ccccc4OC)CC3)cc12` [Example I-471] was under 100 nM.

With `COc1cnccc1-c1cc(C2=CCCN(C(=O)CCn3cccn3)C2)c(F)c2[nH]c(C(=O)N3CCN(c4ncc(F)cc4OC)CC3)cc12` [Example I-663], the half-maximal inhibitory concentration (IC50) under setting [1] was under 100 nM. Turning to `COc1cccnc1N1CCN(C(=O)c2cc3c(-c4cccc(F)c4OC)cc(C4=CCCN(C(=O)CCn5ccnn5)C4)c(F)c3[nH]2)C(C)C1` (stereo not shown) [Example I-973], under setting [1], the IC50 was in the range of 100 to 1000 nM.

Source of the values: patent publication US20250214977A1, “STAT6 INHIBITORS AND USES THEREOF” (Kymera Therapeutics, Inc., priority 2024, published 2025).
